Data as given in patent US10653651B2, “Kit for treating cancer with low molecular weight components of aurin tricarboxylic acid complex” (Aurin Biotech Inc., priority 2014, dated 2020).
Like-named read-outs stand apart in the source and are kept apart here.

What was measured:
[1] = system: U251 malignant glioblastoma human cell line; experiment: U251 cell growth in zymosan-activated human serum (MTT cell viability); assay type: cell-based; conditions: 15% human serum, 1 μg/mL zymosan, 72 h, n=4, read-out: IC50, inhibition of U251 cell growth induced by zymosan-activated human serum complement
Description: To obtain normal serum, blood samples from healthy individuals were treated at 37° C. for 3 h to promote clotting. Samples were then centrifuged at 3,000 g for 10 min and the clear serum was harvested.
The ATAC used comprised approximately 78% ATA, 15% AQA, and 7% AHA. In addition, ATA, AQA and AHA that had been separated by size exclusion chromatography were also tested individually, their purity having been verified by mass spectrometry.
U251 cells were grown in DMEM medium containing 10% fetal bovine serum (FBS), 100 IU/mL penicillin, and 100 μg/mL streptomycin (Invitrogen™, Carlsbad, Ca.) under humidified 5% CO2 and 95% air until confluence was reached. This usually required 3 days of incubation. Aliquots of these cells (˜2×10^5 cells) were added to 24-well plates.
Experiment 1 was designed to determine the effect of ATA, AHA, AQA and ATAC on U251 cell growth in the presence of complement activated human serum. In Experiment 1(a), U251 cells were treated with various concentrations of human serum (1, 5, 7.5, 10, 12.5, 15%) in DMEM and incubated with 1 μg/mL zymosan at 37° C. for 72 h. Control U251 cells (CON) were incubated in fresh DMEM only. As a further control U251 cells were treated with 10% human serum heated at 56° C. for 30 min to heat inactivate complement (HIS) before incubation with 1 μg/ml zymosan. In Experiment 1(b), U251 cells were treated with various concentrations of ATAC, ATA, AQA and AHA (0.1, 1, 5, 10, 30, 50 μM) in DMEM with 15% human serum and incubated with 1 μg/mL zymosan at 37 ° C. for 72 h. In both Experiments 1(a) and 1(b), following incubation, cell viability was evaluated by MTT (3-[4,5-dimethylthiazol-2-yl]-2,5 diphenyl tetrazolium bromide) assays by adding MTT to the cell cultures to reach a final concentration of 1 mg/mL. […] Plates were subsequently incubated overnight at 37° C. and optical densities at 570 nm were measured by transferring 100 μL aliquots to 96-well plates and using a plate reader with a corresponding filter.

[2] = system: VEGF; experiment: Western blot of VEGF expression and release by BxPC-3 cells; assay type: cell-based, human; conditions: 10 μM, 1 day; for expression of vascular endothelial growth factor (VEGF) in BxPC-3 cells: cell extract; for release of VEGF into the extracellular milieu by BxPC-3 cells: supernatant
Description: Experiment 2 was designed to determine the effect of ATA, AQA, and AHA on the expression and release of Factor H and VEGF by U251 cells. Cells were grown in DMEM for 24 h at 37° C., after which ATA, AQA, or AHA was added to the medium at a final concentration of 10 μM and incubation carried out for a further 24 h. The medium was drawn off, and the cells washed with PBS. Lysis buffer was then added to the cells. Forty microliters of the cell lysate, or the supernatant media, were loaded onto 12% polyacrylamide gels and separated under non-reducing conditions (70 V, 3-6 h). Following SDS-PAGE, proteins were transferred to a PVDF membrane (Bio-RadTM, CA) at 30 mA for 2 h. The membranes were blocked with 5% milk in PBS-T (80 mM Na2HPO4, 20 mM NaH2PO4, 100 mM NaCl, 0.1% Tween 20, pH 7.4) for 1 h, and incubated overnight at 4° C. with primary antibodies for Factor H (CytotechTM, goat 1/1000) and for VEGF (MilliporeTM, rabbit 1/2000). The membranes were then washed 3 times with PBST. They were then treated with an appropriate horseradish peroxidase (HRP)-conjugated secondary antibody for 3 h at room temperature. The secondary antibodies were anti-rabbit IgG (P0448, DAKOTM, Mississauga, Ontario, CA, 1/2,000) and anti-goat IgG (A[…], MilliporeTM, Billerica, Ma, 1/3,000). The bands were visualized with an enhanced chemiluminescence system and exposure to photographic film (Hyperfilm ECLTM, AmershamTM Pharmacia Biotech, Little Chalfont, UK). For reprobing of membranes with an alternative antibody, the membranes were treated with 10 mL of stripping buffer (3 mL of 1 M Tris-HCl pH 6.7, 10 mL of 10% SDS, 347 μL of 14 M mercaptoethanol, and 36.5 mL deionized water) at 60° C. for 1 h. The membrane was then placed on a shaking incubator for 30 min to clear it of all bound antibodies. The stripped membrane was then treated with a different primary antibody as previously described. Experiment 6 was designed to determine the effect of ATA, AQA, and AHA on the expression and release of Factor H and VEGF by BxPC-3 cells.

[3] = system: BxPC-3 cells; experiment: DNA laddering (apoptosis) in BxPC-3 cells; assay type: cell-based, human; conditions: 10 μM, 1 day, agarose gel
Description: For determination of DNA laddering, which is indicative of DNA disintegration, cells were precipitated by centrifugation, washed, and lysed with […] Tris-HCl, 5 mM EDTA, and 3% Triton-X-100. The lysates were incubated at 37° C. for 1 h and then centrifuged at 12,000g for 10 min. They were treated with phenol/chloroform/isoamylalcohol (25:24:1) and chloroform/isoamylalcohol (24:1) twice each, and precipitated with 0.6 volume isopropyl alcohol and 0.1 volume 3 M sodium actate at −20° C. for 30 min. The precipitates were centrifuged at 12,000 g for 20 min, washed with 70% ethanol and dissolved with TE buffer containing 2 μg/mL bovine RNase. DNAs were electrophoresed in 10 μg/mL ethidium bromide containing 2% w/v agarose gel.

IC50 ([1]; U251 cells) [µM] | Molecule | IC50 ([1]; U-251, U251 cells) [µM] | expression of vascular endothelial growth factor (VEGF) in BxPC-3 cells [2] | release of VEGF into the extracellular milieu by BxPC-3 cells [2] | DNA fragmentation (180 bp laddering) in BxPC-3 cells [3]
 | O=C(O)C1=CC(=C(c2ccc(O)c(C(=O)O)c2)c2ccc(O)c(C(=O)O)c2)C=CC1=O [ATA, aurin tricarboxylic acid] | 3.5 |  |  | 
3.8 | aurin hexacarboxylic acid [AHA] |  | reducing expression | reducing release | induced DNA fragmentation
3.7 | aurin quadracarboxylic acid [AQA] |  | reducing expression | reducing release | induced DNA fragmentation
